Values belong to the compound of their own block, whether it stands above or below them.
Legend:
[1] = tested on: primary human total T-cells; assay: Primary human total T-cell activation: IL-2 secretion, Biological Example 9; format: cell-based; settings: 48 hours, fold change over baseline; for fold induction at 1 µM: inhibitor 1 μM
[2] = tested on: primary human total T-cells; assay: Primary human total T-cell activation: CD25 surface staining, Biological Example 13; format: cell-based; settings: 48 hours, fold change over baseline; for fold induction at 1 µM: inhibitor 1 μM
[3] = biological target: T1, Cbl-b (Homo sapiens (Human), UniProt Q13191); assay: Cbl-b displacement assay (Cbl-b inhibition assay), Biological Example 12; format: binding; settings: 0.125 nM Cbl-b final concentration (Low); Table 12-1; read-out: Cbl-b IC50 (Low)
T1 sequence (Q13191 36-427): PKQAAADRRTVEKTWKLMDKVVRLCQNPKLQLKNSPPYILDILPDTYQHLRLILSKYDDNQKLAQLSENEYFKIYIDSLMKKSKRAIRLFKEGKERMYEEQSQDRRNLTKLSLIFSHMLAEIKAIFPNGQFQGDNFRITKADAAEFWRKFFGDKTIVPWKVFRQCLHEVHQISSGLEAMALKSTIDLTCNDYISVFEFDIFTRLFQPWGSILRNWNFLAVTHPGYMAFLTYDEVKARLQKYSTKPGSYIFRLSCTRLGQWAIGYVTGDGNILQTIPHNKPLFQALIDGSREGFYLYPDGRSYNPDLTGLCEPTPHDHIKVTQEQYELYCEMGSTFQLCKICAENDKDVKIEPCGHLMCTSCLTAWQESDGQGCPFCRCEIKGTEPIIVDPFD
Procedure: (§1) Candidate compounds were evaluated for their ability to bind and inhibit Cbl-b, an E3 ubiquitin-protein ligase, as evidenced by their ability to displace a fluorophore-labeled probe bound to Cbl-b.
(§2) The ability of candidate compounds to displace a known inhibitor and thereby inhibit Cbl-b activity was measured by monitoring the interaction of Cbl-b with a fluorophore-labeled probe in the presence of the candidate compound. A truncated variant of Cbl-b (UniProt number Q13191) containing residues 36-427 and an Avitag at its N-terminus was co-expressed with BirA biotin ligase and purified using a standard protocol (see Dou et al., Nature Structural and Molecular Biology 8: 982-987, 2013; Avidity LLC).
(§3) Fluorescently-labeled inhibitor probe was synthesized and tagged with BODIPY FL. Cbl-b displacement assays were performed in a 384-well plate at room temperature in a 10 μl reaction volume by pre-incubating 0.5 nM Cbl-b or 0.125 nM Cbl-b (final concentration, indicated as “High” and “Low”, respectively) in an assay buffer containing 20 mM HEPES pH 7.5, 150 mM NaCl, 0.01% Triton X-100, 0.01% BSA and 0.5 mM TCEP in the presence of a candidate compound in 1% DMSO (final concentration) for 1 hour. After incubation in the presence of the candidate compound, the plate was incubated for an additional 1 hour in the presence of an approximate EC40 binding saturation consisting of 150 nM fluorescently-labeled inhibitor probe and 2 nM Streptavidin-Terbium (Cisbio) (final concentrations). Following the 1 hour incubation, the plates were read for TR-FRET signal at 520/620 nM using an Envision plate reader (Perkin Elmer).
(§4) The resulting data for the Cbl-b activity assays were analyzed using standard methods to determine the IC50 values for the tested compounds.

[4] = tested on: primary human total T-cells; assay: Primary human total T-cell activation: CD25 surface staining, Biological Example 9; format: cell-based; settings: 48 hours, fold change over baseline; for fold induction at 1 µM: inhibitor 1 μM
[5] = biological target: T1, Cbl-b; assay: Cbl-b displacement assay (Cbl-b inhibition assay), Biological Example 8; format: binding; settings: 0.125 nM Cbl-b final concentration (Low); Table 8-1; read-out: Cbl-b IC50 (Low)
Procedure: as §1, §2, §3, §4

[6] = tested on: primary human total T-cells; assay: Primary human total T-cell activation: IL-2 secretion, Biological Example 13; format: cell-based; settings: 48 hours, fold change over baseline; for fold induction at 1 µM: inhibitor 1 μM
[7] = tested on: primary human total T-cells; assay: Primary human total T-cell activation: IL-2 secretion, Biological Example 2; format: cell-based; settings: 48 hours, fold change over baseline; for fold induction at 0.3 µM: inhibitor 0.3 μM; for fold induction at 1 µM: inhibitor 1 μM; for fold induction at 3 µM: inhibitor 3 μM
[8] = tested on: primary human total T-cells; assay: Primary human total T-cell activation: CD25 surface staining, Biological Example 2; format: cell-based; settings: 48 hours, fold change over baseline; for fold induction at 0.3 µM: inhibitor 0.3 μM; for fold induction at 1 µM: inhibitor 1 μM; for fold induction at 3 µM: inhibitor 3 μM
[9] = biological target: T1, Cbl-b; assay: Cbl-b displacement assay (Cbl-b inhibition assay), TR-FRET probe displacement, Biological Example 1; format: binding
Method in brief: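 N-terminally Avitagged, biotinylated truncated Cbl-b (0.5 nM "High" or 0.125 nM "Low", final) pre-incubated 1 h at room temperature with compound (1% DMSO) in HEPES pH 7.5 buffer. Then 150 nM BODIPY FL probe (~EC40) plus 2 nM streptavidin-terbium for 1 h; TR-FRET read at 520/620 nm.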

[10] = anti-CD3/anti-CD28 co-stimulation, inhibitor 0.3 μM, Table 9-1
[11] = anti-CD3/anti-CD28 co-stimulation, inhibitor 0.3 μM, Table 13-1
[12] = anti-CD3/anti-CD28 co-stimulation
[13] = anti-CD3/anti-CD28 co-stimulation, read-out: IL-2 secretion CD3/CD28 1 μM
[14] = anti-CD3 alone, read-out: IL-2 secretion CD3 1 μM
[15] = anti-CD3/anti-CD28 co-stimulation, read-out: CD25 staining CD3/CD28 1 μM
[16] = anti-CD3 alone, read-out: CD25 staining CD3 1 μM
[17] = 0.125 nM Cbl-b final concentration (Low), read-out: Cbl-b activity IC50 (Low)
[18] = 0.5 nM Cbl-b final concentration (High), read-out: Cbl-b activity IC50 (High)

SMILES: Cn1cnnc1C(F)(F)[C@](C)(F)c1cccc(N2Cc3c(cc(CN4CC[C@H](F)C4)cc3C(F)(F)F)C2=O)c1 [Compound 57]
fold induction at 0.3 µM [1, 10]: < 10
fold induction at 1 µM ([1]; anti-CD3/anti-CD28 co-stimulation, Table 9-1, read-out: IL-2 secretion CD3/CD28 1 μM): 10 to 15
fold induction at 1 µM ([1]; anti-CD3 alone, Table 9-1, read-out: IL-2 secretion CD3 1 μM): < 0.33
fold induction at 0.3 µM [2, 11]: 1.25 to 1.39
fold induction at 1 µM ([2]; anti-CD3/anti-CD28 co-stimulation, Table 13-1, read-out: CD25 staining CD3/CD28 1 μM): > 1.39
fold induction at 1 µM ([2]; anti-CD3 alone, Table 13-1, read-out: CD25 staining CD3 1 μM): > 1.14
IC50 [3]: > 5 nM
fold induction at 0.3 µM [4, 10]: 1.25 to 1.39
fold induction at 1 µM ([4]; anti-CD3/anti-CD28 co-stimulation, Table 9-1, read-out: CD25 staining CD3/CD28 1 μM): > 1.39
fold induction at 1 µM ([4]; anti-CD3 alone, Table 9-1, read-out: CD25 staining CD3 1 μM): > 1.14
IC50 [5]: > 5 nM
fold induction at 0.3 µM [6, 11]: < 10
fold induction at 1 µM ([6]; anti-CD3/anti-CD28 co-stimulation, Table 13-1, read-out: IL-2 secretion CD3/CD28 1 μM): 11 to 15
fold induction at 1 µM ([6]; anti-CD3 alone, Table 13-1, read-out: IL-2 secretion CD3 1 μM): < 0.33

SMILES: Cn1cnnc1CC1(c2cccc(N3Cc4c(cc(CN5CCCC(C)(F)C5)cc4C(F)(F)F)C3=O)c2)COC1 (stereo in doubt) [Compound 5, (R)-6-((3-fluoro-3-methylpiperidin-1-yl)methyl)-2-(3-(3-((4-methyl-4H-1,2,4-triazol-3-yl)methyl)oxetan-3-yl)phenyl)-4-(trifluoromethyl) isoindolin-1-one]
fold induction at 0.3 µM [7, 12]: 11 to 15
fold induction at 1 µM [7, 13]: > 15
fold induction at 1 µM [7, 14]: < 0.33
fold induction at 3 µM ([7]; anti-CD3 alone): 0.34 to 0.66
fold induction at 0.3 µM [8, 12]: > 1.39
fold induction at 1 µM [8, 15]: > 1.39
fold induction at 1 µM [8, 16]: > 1.14
fold induction at 3 µM ([8]; anti-CD3 alone): > 1.14
IC50 [9, 17]: 5.1 to 100 nM

SMILES: Cn1cnnc1CC1(c2cccc(N3Cc4c(cc(CN5CCC(F)(F)[C@@]6(CCOC6)C5)cc4C(F)(F)F)C3=O)c2)COC1 [Compound 14, (S)-6-((10,10-difluoro-2-oxa-7-azaspiro[4.5]decan-7-yl)methyl)-2-(3-(3-((4-methyl-4H-1,2,4-triazol-3-yl)methyl)oxetan-3-yl)phenyl)-4-(trifluoromethyl)isoindolin-1-one]
fold induction at 0.3 µM [7, 12]: < 10
fold induction at 1 µM [7, 13]: 11 to 15
fold induction at 1 µM [7, 14]: 0.34 to 0.66
fold induction at 3 µM ([7]; anti-CD3 alone): 0.34 to 0.66
fold induction at 0.3 µM [8, 12]: < 1.24
fold induction at 1 µM [8, 15]: < 1.24
fold induction at 1 µM [8, 16]: 1.05 to 1.14
fold induction at 3 µM ([8]; anti-CD3 alone): < 1.04
IC50 [9, 18]: 1 to 5 nM

SMILES: CCNc1cc(C2(Cc3nncn3C)COC2)cc(N2Cc3c(cc(CN4CCC(F)(F)[C@H](C)C4)cc3C(F)(F)F)C2=O)n1 [Compound 27, (R)-6-((4,4-difluoro-3-methylpiperidin-1-yl)methyl)-2-(6-(ethylamino)-4-(3-((4-methyl-4H-1,2,4-triazol-3-yl)methyl)oxetan-3-yl)pyridin-2-yl)-4-(trifluoromethyl)iso indolin-1-one]
fold induction at 0.3 µM [7, 12]: > 15
fold induction at 1 µM [7, 13]: > 15
fold induction at 1 µM [7, 14]: > 0.66
fold induction at 3 µM ([7]; anti-CD3 alone): > 0.66
fold induction at 0.3 µM [8, 12]: < 1.24
fold induction at 1 µM [8, 15]: < 1.24
fold induction at 1 µM [8, 16]: < 1.04
fold induction at 3 µM ([8]; anti-CD3 alone): < 1.04
IC50 [9, 18]: 5.1 to 100 nM
IC50 ([9]; Cbl-b concentration (High or Low) not given, read-out: IC50 values in the Cbl-b inhibition assay of Biological Example 1): 5.1 to 100 nM

The next lines start with results.

IC50 [9, 17]: < 1 nM
SMILES: C[C@@H]1CN([C@@H](C)c2cc3c(c(C4CC4)n2)CN(c2cccc(C4(Cc5nncn5C)COC4)c2)C3=O)CCC1(F)F [Compound 49, 4-cyclopropyl-6-((S)-1-((R)-4,4-difluoro-3-methylpiperidin-1-yl)ethyl)-2-(3-(3-((4-methyl-4H-1,2,4-triazol-3-yl)methyl)oxetan-3-yl)phenyl)-2,3-dihydro-1H-pyrrolo[3,4-c]pyridin-1-one]
fold induction at 0.3 µM [7, 12]: > 15
fold induction at 1 µM [7, 13]: > 15
fold induction at 1 µM [7, 14]: > 0.66
fold induction at 3 µM ([7]; anti-CD3 alone): > 0.66
fold induction at 0.3 µM [8, 12]: > 1.39
fold induction at 1 µM [8, 15]: > 1.39
fold induction at 1 µM [8, 16]: > 1.14
fold induction at 3 µM ([8]; anti-CD3 alone): > 1.14

IC50 [3]: 1 to 5 nM
IC50 [5]: 1 to 5 nM
IC50 [9, 17]: 1 to 5 nM
SMILES: C[C@@H]1CN(Cc2cc3c(c(C4CC4)n2)CN(c2cccc(C4(Cc5nncn5C)COC4)c2)C3=O)CCC1(F)F [Compound 34, (R)-4-Cyclopropyl-6-((4,4-difluoro-3-methylpiperidin-1-yl)methyl)-2-(3-(3-((4-methyl-4H-1,2,4-triazol-3-yl)methyl)oxetan-3-yl)phenyl)-2,3-dihydro-1H-pyrrolo[3,4-c]pyridin-1-one]

IC50 [9, 17]: 1 to 5 nM
SMILES: CCNc1cc(C2(Cc3nncn3C)COC2)cc(N2Cc3c(cc(CN4CCC[C@H](C)C4)nc3C3CC3)C2=O)n1 [Compound 43, 4-cyclopropyl-2-[6-(ethylamino)-4-{3-[(4-methyl-1,2,4-triazol-3-yl)methyl]oxetan-3-yl}pyridin-2-yl]-6-{[(3S)-3-methylpiperidin-1-yl]methyl}-3H-pyrrolo[3,4-c]pyridin-1-one]
fold induction at 0.3 µM [7, 12]: > 15
fold induction at 1 µM [7, 13]: > 15
fold induction at 1 µM [7, 14]: > 0.66
fold induction at 3 µM ([7]; anti-CD3 alone): > 0.66
fold induction at 0.3 µM [8, 12]: > 1.39
fold induction at 1 µM [8, 15]: > 1.39
fold induction at 1 µM [8, 16]: > 1.14
fold induction at 3 µM ([8]; anti-CD3 alone): > 1.14

IC50 [9, 17]: 1 to 5 nM
SMILES: C[C@H]1CCCN(Cc2cc3c(c(C4CC4)n2)CN(c2cccc(C4(Cc5nncn5C)COC4)c2)C3=O)C1 [Compound 35, (S)-4-Cyclopropyl-2-(3-(3-((4-methyl-4H-1,2,4-triazol-3-yl)methyl)oxetan-3-yl)phenyl)-6-((3-methylpiperidin-1-yl)methyl)-2,3-dihydro-1H-pyrrolo[3,4-c]pyridin-1-one]
fold induction at 0.3 µM [7, 12]: 11 to 15
fold induction at 1 µM [7, 13]: > 15
fold induction at 1 µM [7, 14]: 0.34 to 0.66
fold induction at 3 µM ([7]; anti-CD3 alone): > 0.66
fold induction at 0.3 µM [8, 12]: < 1.24
fold induction at 1 µM [8, 15]: 1.25 to 1.39
fold induction at 1 µM [8, 16]: 1.05 to 1.14
fold induction at 3 µM ([8]; anti-CD3 alone): > 1.14

IC50 [9, 18]: 5.1 to 100 nM
SMILES: C[C@H]1CN(Cc2cc3c(c(C(F)(F)F)c2)CN(c2cccc(C4(Cc5nncn5C)COC4)c2)C3=O)CCC1(F)F [Compound 9, (S)-6-((4,4-difluoro-3-methylpiperidin-1-yl)methyl)-2-(3-(3-((4-methyl-4H-1,2,4-triazol-3-yl)methyl)oxetan-3-yl)phenyl)-4-(trifluoromethyl)isoindolin-1-one]
fold induction at 0.3 µM [7, 12]: 11 to 15
fold induction at 1 µM [7, 13]: > 15
fold induction at 1 µM [7, 14]: 0.34 to 0.66
fold induction at 3 µM ([7]; anti-CD3 alone): 0.34 to 0.66
fold induction at 0.3 µM [8, 12]: 1.25 to 1.39
fold induction at 1 µM [8, 15]: > 1.39
fold induction at 1 µM [8, 16]: > 1.14
fold induction at 3 µM ([8]; anti-CD3 alone): > 1.14

— patent US11464802B2, “3-substituted piperidine compounds for Cbl-b inhibition, and use thereof” (Nurix Therapeutics, Inc., priority 2019, dated 2022)
